Patent US7632814B2, “HYD1 peptides as anti-cancer agents” (University of South Florida, priority 2006, dated 2009)
Where no end group is shown, it is not given here. [ ]: non-standard residue; d: D form.

What was measured:
8226 cells [1] = assay: Detection of apoptosis, annexin V staining and FACS, suspension culture; assay type: cell-based
Protocol: FIG. 17 is a graph showing that HYD1 induces apoptosis as a single agent in 8226 and H929 cells cultured in suspension. 8226 and H929 cells were either treated with varying concentrations of HYD1 or vehicle control (equal volume sterile double distilled water) for 24 hours and apoptotic cells were detected by FACS analysis of annexin V positive cells. HYD1 specific apoptosis equals cell death due to peptide minus any apoptosis detected in control cells.
Detection of Apoptosis. A flow cytometric assay measuring Annexin V/PI staining was used to measure apoptotic cells following 24 hours of peptide exposure as previously described (Damiano J S et al. Blood, 1999; 93:1658-1667). The assay was performed in triplicate and 3 independent experiments were performed. Caspase 3 and 8 activity was measured at 6 and 24 hrs post peptide treatment per manufactures' instructions (BD Biosciences, San Jose, Calif.). The caspase assays were performed in triplicate and repeated twice.
Myeloma cells were plated at a density of 400,000 cells per ml in a 24 well plate. Cells were treated with the indicated dose of the peptide for 24 hours. Following 24 hrs of peptide exposure, apoptotic cells were detected using Annexin V staining and FACS analysis. Ten thousand events were analyzed by flow cytometry (Becton Dickinson, San Jose, Calif.). Experiments were performed in triplicate and repeated twice. Shown is a representative figure.

8226 cells [2] = assay: Lysosensor staining of acidic vesicles, confocal microscopy; assay type: cell-based; settings: 100 μg/ml, six hours, compared to control cells
Protocol: (§1) Lysosensor green was used to detect acidic compartments and live cell imaging was performed by confocal microscopy. Shown is a representative figure. The experiment was repeated three independent times and similar results were obtained.
(§2) Lysosensor staining. 35 mm glass bottom microwell dishes were incubated with 10 ul Cell-tak (BD biosciences San Jose, Calif.) and 290 ul 0.5M sodium bicarbonate (Sigma) for 30 minutes. The plates were aspirated and 200,000H929 or 8226 cells were plated. Cells were then treated with either water (VC), 100 μg/ml HYD1 or 100 μg/ml HYD1S for 6 hours. After the 6-hour incubation, the plates were aspirated and washed once with warm media. Media containing 1 μM lysosensor DND-189 (Molecular Probes, Carlsbad Calif.) and 20 μM Hoechst 33342 (Molecular Probes) was added and samples were incubated for an additional 30 minutes. Samples were analyzed with a Leica DMI6000 inverted TCS SP5 confocal scanner (Leica Microsystems, Germany). 405 Diode and Argon laser lines were applied to excite the samples and tunable filters were used to minimize the crosstalk between fluorochromes. Gain, offset, and pinhole setting were identical for all samples within the treatment group. Image sections at […] were captured with photomultiplier detectors and maximum projections were prepared with the LAS AF software version 1.6.0 build 1016 (Leica Microsystems, Germany).

H929 cells = assay: as above; assay type: cell-based; settings: 100 μg/ml, six hours, compared to control cells
Protocol: as §1, §2

[3] = test system: phospho-Pyk2 in 8226 cells; assay: Phospho-Pyk2 levels (immunoblot); assay type: cell-based
H929 MM = assay: SCID-Hu in vivo model, tumor burden; parameters: species or system SCID mice; settings: H929, 8 mg/kg I.P. daily for 14 days starting day 28
Protocol: Tumor burden was measured by circulating […] levels. On day 28 (before drug treatment), measurements were recorded for each individual mouse and subsequent values obtained weekly are represented as a ratio of day 28 (day X/day 28). N=4 mice per group. HYD1 was administered I.P. at 8 mg/kg daily for 14 days (starting day 28).
SCID-Hu model. The SCID-Hu model was performed as previously described (Zhu K et al. Blood, 2005; 105:4759-4766). Briefly, SCID/Beige mice 4-6 weeks old were purchased from Taconic (Germantown, N.Y.). Fetal tissue (18-23 weeks) was obtained from Advance Bioscience Resource (Alameda, Calif.) in compliance with state and federal government regulations. Two bones were surgically implanted in the mammary fat pad of 6-8 week old female SCID mice. […] At 28 days, baseline tumor burden was quantified in the sera using either a lambda (8226) or kappa (H929) ELISA kit per manufacture instructions (Bethyl, Montgomery, Tex.) and mice were randomized into treatment groups. […] Tumor burden was assessed weekly by measuring kappa or lambda levels in the sera.
The SCID-Hu model consists of implanting human fetal bone into the mammary mouse fat pad of SCID mice. […] Human paraprotein can be measured in the mouse sera and levels represent a good marker for evaluating tumor burden and response to chemotherapy. […]

## kikmviswkg ([dK][dI][dK][dM][dV][dI][dS][dW][dK]G) [HYD1]
8226 cells [1]; suspension culture, single agent, 24 hours
  induction of annexin V positive cells: dose dependent induction of annexin V positive cells
8226 cells [1]; suspension, peptide with melphalan
  melphalan-induced apoptosis in cells cultured in suspension: increased melphalan-induced apoptosis
8226 cells [2]
  number and size of acidic vesicles: increase in the number and size of acidic vesicles
H929 cells
  number and size of acidic vesicles: increase in the number and size of acidic vesicles
[3]
  phospho-Pyk2 levels: decreased levels of phospho-Pyk2
H929 MM
  tumor growth in vivo compared to vehicle control: reduces H929 MM growth in vivo
